Measured values taken from patent US10501460B2, “Heterocyclic compounds and uses thereof” (Plexxikon Inc., priority 2013, dated 2019).

Key:
MV-4-11 = test: Oncology cell growth assay MV-4-11 (CellTiter Glo, 72 hours); assay type: cell-based; conditions: Homo sapiens, MV4-11, 72 h; MV-4-11 cell growth inhibitory activity, 3d
Description: (§1) Published bromodomain inhibitors JQ1 and iBET 151 have shown activity in variety of cancer cells such leukemia and lymphoma, multiple myeloma cells, NUT midline carcinoma and glioblastoma cells (Dawson M A et al. 2011; Delmore J E 2011; Chen Z et al. 2013; Filippakopoulos P et al. 2010; Mertz J A et al. 2011; Ott C J et al. 2012). In this study, we test compounds in different cancer cell lines. MV-4-11 and MOLM-13 are AML cell lines harboring a MLL-AF4 and MLL-AF9 translocation, respectively. MM.1S is a multiple myeloma cell line. SK-N-AS, IMR-32 and SK-N-BE(2) are neuroblastoma cell lines. IMR-32 and SK-N-BE(2) cell lines harbor MYCN amplifications. MV-4-11, MM.1S, IMR-32, SK-N-AS and SK-N-BE(2) were obtained from ATCC (IL, USA) and MOLM-13 were purchased from DSMZ (Braunschweig, German). Cells are cultured as recommended by their sources. For growth inhibition studies 3000 cells are seeded in wells of a 96-well plate in 75 μL of culture media. After several hours, growth media containing compounds of formula (I) are added to the wells. Compound at a maximal concentration of 5 mM was serially diluted 1:3 for a total of 8 point titration with DMSO as a control. A 1 μL aliquot of each dilution point is added to 249 μL growth media and 75 μL is added to each well containing cells, providing 10 μM compound at the maximum concentration point. The final concentration of DMSO in all wells is 0.2%. Cells are incubated for 72 hours, and 25 μL of CellTiter Glo Reagent (Promega Ga., USA) is added to each well. Plates are shaken for approximately 10 minutes and chemiluminescent signal is read on Tecan microplate reader. The measured luminescence correlates directly with cell number.
(§2) All data is normalized to the mean of eight DMSO high control wells on each plate. A four parameter curve fit of the following formula was then applied: Y=a+(b−a)/(1+(x/c)^d) Where ‘a’ is the minimum, ‘b’ is the maximum, ‘c’ is the pIC50 and ‘d’ is the Hill slope. […] Myc Reporter Assay
The following table provides data indicating the BRD4 biochemical inhibitory activity and MV-4-11 cell growth inhibitory activity for exemplary compounds as described herein.

bromodomain = test: Bromodomain cell assays of Example 40 (at least one of them); assay type: cell-based; conditions: in at least one of the bromodomain cell assays described in Example 40
Description: as §1, §2
In MV-4-11 cells, BRD2, BRD3 and BRD4 bind to the promoter region of MYC and regulate its transcription (Dawson M A et al. 2011). The literature bromodomain inhibitor iBET 151 could disrupt BRD4 recruitment to the MYC promoter and subsequently downregulate c-myc transcription (Dawson M A et al. 2011). Myc protein is a transcription factor that heterodimerizes with an obligatory partner Max and regulates the transcription of genes important for cell proliferation, differentiation, and apoptosis. This Myc reporter assay is used to monitor the inhibitory effect of compound of formula (I) on Myc dependent gene expression. Effective compounds could have potential therapeutic effects in Myc-driven tumors.
The MV-4-11 Myc reporter cell line is established by infecting MV-4-11 with VSV-g pseudotyped lentivirus expressing the firefly luciferase gene under the control of a minimal (m) CMV promoter and tandem repeats of the E-box transcriptional response element (TRE) (Qiagen IL, USA) and selecting cells in […] Puromycin.
The MV-4-11 Myc reporter cell line is maintained in Iscove's Modified Dulbecco's Medium containing 10% FBS, 1% PenStep and 2.5 μg/ml Puromycin. Cells are incubated at 37° C. in a humidified atmosphere with 5% CO2. 25,000 cells are seeded in 96-well plate in 50 μL of culture media. After several hours, growth media containing 2× compounds are added to the wells. Compound at a maximal concentration of 5 mM is serially diluted 1:3 for a total of 8 point titration. A 1 μl aliquot of each dilution point is added to 249 μl growth media and 50 μl is added to each well containing cells, providing 10 μM compound at the maximum concentration point. DMSO treated cells serve as a high control and 10 μM JQ1 treated cells serve as a low control. Cells are incubated for a further 24 hours and 25 μL of CellTiter-Fluo Reagent (Promega Ga., USA) is added to each well. Plates are shaken for approximately 2 minutes and incubated at 37° C. for 0.5 hour. […]

Row | Structure (SMILES) | IC50 (MV-4-11) | IC50 (bromodomain)
1 | Cc1noc(C)c1-c1cnc2[nH]cc(Cc3cccnc3)c2c1 [P-0003, 3,5-dimethyl-4-[3-(3-pyridylmethyl)-1H-pyrrolo[2,3-b]pyridin-5-yl]isoxazole] | ≤ 1 µM | < 10 µM
2 | Cc1noc(C)c1-c1cnc2[nH]c(C)c(Cc3cccnc3)c2c1 [P-0005, 3,5-dimethyl-4-[2-methyl-3-(3-pyridylmethyl)-1H-pyrrolo[2,3-b]pyridin-5-yl]isoxazole] | ≤ 1 µM | < 10 µM
3 | Cc1noc(C)c1-c1cnc2[nH]c(-c3ccc(F)cc3)c(Cc3cccnc3)c2c1 [P-0007, 4-[2-(4-fluorophenyl)-3-(3-pyridylmethyl)-1H-pyrrolo[2,3-b]pyridin-5-yl]-3,5-dimethyl-isoxazole] | ≤ 1 µM | < 10 µM
4 | Cc1noc(C)c1-c1cnc2[nH]c(C)c(C(O)c3cccnc3)c2c1 (stereo not shown) [P-0009, [5-(3,5-dimethylisoxazol-4-yl)-2-methyl-1H-pyrrolo[2,3-b]pyridin-3-yl]-(3-pyridyl)methanol] | ≤ 1 µM | < 10 µM
5 | COc1ncc(F)cc1C(OC)c1c[nH]c2ncc(-c3c(C)noc3C)cc12 (stereo not shown) [P-0011, 4-[3-[(5-fluoro-2-methoxy-3-pyridyl)-methoxy-methyl]-1H-pyrrolo[2,3-b]pyridin-5-yl]-3,5-dimethyl-isoxazole] | ≤ 1 µM | < 10 µM
6 | Cc1noc(C)c1-c1cnc2[nH]cc(C(O)c3ccc(OCC(F)(F)F)nc3)c2c1 (stereo not shown) [P-0012, [5-(3,5-dimethylisoxazol-4-yl)-1H-pyrrolo[2,3-b]pyridin-3-yl]-[6-(2,2,2-trifluoroethoxy)-3-pyridyl]methanol] | 1 to 10 µM | < 10 µM
7 | COC(c1ccc(C(F)(F)F)nc1)c1c[nH]c2ncc(-c3c(C)noc3C)cc12 (stereo not shown) [P-0013, 4-[3-[methoxy-[6-(trifluoromethyl)-3-pyridyl]methyl]-1H-pyrrolo[2,3-b]pyridin-5-yl]-3,5-dimethyl-isoxazole] | ≤ 1 µM | < 10 µM
8 | COC(c1c(F)cccc1Cl)c1c[nH]c2ncc(-c3c(C)noc3C)cc12 (stereo not shown) [P-0014, 4-[3-[(2-chloro-6-fluoro-phenyl)-methoxy-methyl]-1H-pyrrolo[2.3-b]pyridin-5-yl]-3,5-dimethyl-isoxazole] | ≤ 1 µM | < 10 µM
9 | Cc1noc(C)c1-c1cnc2[nH]cc(C(O)c3ccccc3Cl)c2c1 (stereo not shown) [P-0019, (2-chlorophenyl)-[5-(3,5-dimethylisoxazol-4-yl)-1H-pyrrolo[2,3-b]pyridin-3-yl]methanol] | ≤ 1 µM | < 10 µM
10 | COC(c1ccccc1Cl)c1c[nH]c2ncc(-c3c(C)noc3C)cc12 (stereo not shown) [P-0020, 4-[3-[(2-chlorophenyl)-methoxy-methyl]-1H-pyrrolo[2,3-b]pyridin-5-yl]-3,5-dimethyl-isoxazole] | ≤ 1 µM | < 10 µM
11 | Cc1noc(C)c1-c1cnc2[nH]cc(C(O)c3c(F)cccc3Cl)c2c1 (stereo not shown) [P-0021, (2-chloro-6-fluoro-phenyl)-[5-(3,5-dimethylisoxazol-4-yl)-1H-pyrrolo[2,3-b]pyridin-3-yl] methanol] | ≤ 1 µM | < 10 µM
12 | Cc1noc(C)c1-c1cnc2c(C#CCO)cn(S(=O)(=O)c3ccccc3)c2c1 [P-0155, 3-[1-(benzenesulfonyl)-6-(3,5-dimethylisoxazol-4-yl)pyrrolo[3,2-b]pyridin-3-yl]prop-2-yn-1-ol] | ≤ 1 µM | –
13 | Cc1noc(C)c1-c1cnc2ccn(Cc3ccccc3)c2c1 [P-0162, 4-(1-benzylpyrrolo[3,2-b]pyridin-6-yl)-3,5-dimethyl-isoxazole] | ≤ 1 µM | –
14 | Cc1noc(C)c1-c1cnc2[nH]cc(P(=O)(c3ccccc3)c3ccccc3)c2c1 [P-0166, 4-(3-diphenylphosphoryl-1H-pyrrolo[2,3-b]pyridin-5-yl)-3,5-dimethyl-isoxazole] | ≤ 1 µM | –
15 | Cc1noc(C)c1-c1cnc2c(c1)c(Sc1ccccc1)cn2-c1cnn(C)c1 [P-0184, 3,5-dimethyl-4-[1-(1-methylpyrazol-4-yl)-3-phenylsulfanyl-pyrrolo[2,3-b]pyridin-5-yl]isoxazole] | ≤ 1 µM | –
16 | Cc1noc(C)c1-c1cnc2[nH]ccc2c1 [P-0246, 3,5-dimethyl-4-(1H-pyrrolo[2,3-b]pyridin-5-yl)isoxazole] | – | < 10 µM

The next lines start with the values.

Row | IC50 (MV-4-11) | IC50 (bromodomain) | Structure (SMILES)
17 | ≤ 1 µM | – | CCn1cc(-c2cn(S(=O)(=O)c3ccccc3)c3cc(-c4c(C)noc4C)cnc23)cn1 [P-0124, 4-[1-(benzenesulfonyl)-3-(1-ethylpyrazol-4-yl)pyrrolo[3,2-b]pyridin-6-yl]-3,5-dimethyl-isoxazole]
18 | ≤ 1 µM | – | Cc1noc(C)c1-c1cnc2c(-c3cnn(C(F)F)c3)cn(S(=O)(=O)C3CCCC3)c2c1 [P-0133, 4-[1-cyclopentylsulfonyl-3-[1-(difluoromethyl)pyrazol-4-yl]pyrrolo [3,2-b]pyridin-6-yl]-3,5-dimethyl-isoxazole]
19 | ≤ 1 µM | – | Cc1noc(C)c1-c1cnc2c(-c3cnn(C(F)F)c3)cn(C(C)c3ccccc3)c2c1 (stereo not shown) [P-0177, 4-[3-[1-(difluoromethyl)pyrazol-4-yl]-1-(1-phenylethyl)pyrrolo[3,2-b]pyridin-6-yl]-3,5-dimethyl-isoxazole]
20 | – | < 10 µM | Cc1noc(C)c1-c1cnc2c(-c3cn[nH]c3)cn(CC3(F)CCCCC3)c2c1 [P-0239, 4-[1-[(1-fluorocyclohexyl)methyl]-3-(1H-pyrazol-4-yl)pyrrolo[3,2-b]pyridin-6-yl]-3,5-dimethyl-isoxazole]
21 | – | < 10 µM | Cc1noc(C)c1-c1cnc2c(I)cn(CC3(F)CCC4(CC3)OCCO4)c2c1 [P-0240, 4-[1-[(8-fluoro-1,4-dioxaspiro[4.5]decan-8-yl)methyl]-3-iodo-pyrrolo[3,2-b]pyridin-6-yl]-3,5-dimethyl-isoxazole]
22 | – | < 10 µM | Cc1noc(C)c1-c1cnc2c(-c3cnn(C(F)F)c3)cn(CC3(F)CCC4(CC3)OCCO4)c2c1 [P-0241, 4-[3-[1-(difluoromethyl)pyrazol-4-yl]-1-[(8-fluoro-1,4-dioxaspiro[4.5]decan-8-yl)methyl]pyrrolo[3,2-b]pyridin-6-yl]-3,5-dimethyl-isoxazole]
23 | – | < 10 µM | Cc1noc(C)c1-c1cnc2c(-c3cnn(C(F)F)c3)cn(CC3(F)CCC(=O)CC3)c2c1 [P-0242, 4-[[3-[1-(difluoromethyl)pyrazol-4-yl]-6-(3,5-dimethylisoxazol-4-yl)pyrrolo[3,2-b]pyridin-1-yl]methyl]-4-fluoro-cyclohexanone]
24 | – | < 10 µM | Cc1noc(C)c1-c1cnc2c(-c3cnn(C(F)F)c3)cn(CC3(F)CCC(F)(F)CC3)c2c1 [P-0243, 4-[3-[1-(difluoromethyl)pyrazol-4-yl]-1-[(1,4,4-trifluorocyclohexyl)methyl]pyrrolo[3,2-b]pyridin-6-yl]-3,5-dimethyl-isoxazole]
25 | – | < 10 µM | Cc1noc(C)c1-c1cnc2c(-c3cnn(C(F)F)c3)cn(CC3(F)CC=C(F)CC3)c2c1 (stereo not shown) [P-0244, 4-[1-[(1,4-difluorocyclohex-3-en-1-yl)methyl]-3-[1-(difluoromethyl)pyrazol-4-yl]pyrrolo[3,2-b]pyridin-6-yl]-3,5-dimethyl-isoxazole]
26 | – | < 10 µM | Cc1noc(C)c1-c1cnc2c(I)c(C(F)(F)F)n(C(C)c3ccccc3)c2c1 (stereo not shown) [P-0245, 4-[3-iodo-1-(1-phenylethyl)-2-(trifluoromethyl)pyrrolo[3,2-b]pyridin-6-yl]-3,5-dimethyl-isoxazole]
